{
  "source": "patent US7842496B2",
  "about": "“Advanced selective plating media” (University of Maryland, priority 2006, dated 2010)",
  "system": "Proteus",
  "test": "Proteus background growth, plates inoculated with mixed culture of Proteus and Shigella",
  "assay_type": "cell-based",
  "conditions": "general statement",
  "text": "FIG. 6 is a photograph of two plates. The plate on the right is coated with the selective growth media N4 agar of the present invention. The plate on the left is coated with SS agar.\nFIG. 7 presents a photograph of two agar coated plates. On the right is a plate coated with a prototype N4 formulation assessing the concentration of NIAPROOF®4 for the suppression of competing, background bacterial growth while allowing good growth of Shigella. The plate on the left is coated with XLD agar. Both plates were inoculated with a mixed culture of Proteus and Shigella organisms and allowed to grow overnight.",
  "note": "Where a name gives a salt, the structure may show the parent alone.",
  "data": [
    {"compound": "CCCCC(CC)CCC(CC(C)C)OS(=O)(=O)O", "note": "(stereo not shown) [NIAPROOF®4, 7-ethyl-2-methyl-4-undecanol hydrogen sulfate]", "values": [
      {"measurement": "Suppression of Proteus spp.", "value": "very potent reagent in suppressing Proteus spp."}
    ]}
  ]
}
